Structures can show the parent of a compound that is named as a salt.
Each molecule was assayed on XBP1s-luc 293 LUC (assay: cellular PD assay, XBP1s-LUC reporter (Example 903)). Conditions: Table 1; read-out: XBP1s-luc 293 LUC (IC50).
Type: cell-based
In short: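 A luciferase fusion, in frame and expressed only when the XBP1 transcript is spliced, served as the readout of cellular IRE1α activity in an XBP1-Luc reporter line.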
Molecule `Cc1ccc2c(NS(=O)(=O)CC(C)(C)C)c(F)ccc2c1Oc1ncccc1-c1ccnc(N[C@H]2CCCNC2)n1` [Example 350, (S)—N-(2-Fluoro-6-methyl-5-((3-(2-(piperidin-3-ylamino)pyrimidin-4-yl)pyridin-2-yl)oxy)naphthalen-1-yl)-2,2-dimethylpropane-1-sulfonamide] has an IC50 of 37.4 nM. `Cc1ccc2c(-c3ccccn3)cccc2c1Oc1ncccc1-c1ccnc(N[C@H]2CCCNC2)n1` [Example 353, (S)-4-(2-((2-Methyl-5-(pyridin-2-yl)naphthalen-1-yl)oxy)pyridin-3-yl)-N-(piperidin-3-yl)pyrimidin-2-amine] was tested, and the IC50 was 133 nM. `Cc1cn(C)nc1Nc1cccc2c(Oc3ncccc3-c3ccnc(N[C@H]4CCCNC4)n3)c(C)ccc12` [Example 358, (S)-4-(2-((5-((1,4-Dimethyl-1H-pyrazol-3-yl)amino)-2-methylnaphthalen-1-yl)oxy)pyridin-3-yl)-N-(piperidin-3-yl)pyrimidin-2-amine] showed an IC50 of 266 nM. `Cc1ccc2c(Nc3ccn(C)n3)c(F)ccc2c1Oc1ncccc1-c1ccnc(N[C@H]2CCCNC2)n1` [Example 359, (S)-4-(2-((6-Fluoro-2-methyl-5-((1-methyl-1H-pyrazol-3-yl)amino)naphthalen-1-yl)oxy)pyridin-3-yl)-N-(piperidin-3-yl)pyrimidin-2-amine] showed an IC50 of 438 nM. `Cc1ccc2c(Nc3nn(C)cc3F)cccc2c1Oc1ncccc1-c1ccnc(N[C@H]2CCCNC2)n1` [Example 360, (S)-4-(2-((5-((4-Fluoro-1-methyl-1H-pyrazol-3-yl)amino)-2-methylnaphthalen-1-yl)oxy)pyridin-3-yl)-N-(piperidin-3-yl)pyrimidin-2-amine] was tested, and the IC50 was 455 nM. Molecule `CCCS(=O)(=O)Nc1cccc2c(Oc3ncccc3-c3ccnc(N[C@@H]4CNC[C@H](C)C4)n3)c(C)ccc12` [Example 361, N-(6-Methyl-5-((3-(2-(((3S,5R)-5-methylpiperidin-3-yl)amino)pyrimidin-4-yl)pyridin-2-yl)oxy)naphthalen-1-yl)propane-1-sulfonamide] has an IC50 of 85.1 nM. `Cc1ccc2c(NS(=O)(=O)CC(F)(F)F)c(F)ccc2c1Oc1ncccc1-c1ccnc(N[C@H]2CCCNC2)n1` [Example 362, (S)-2,2,2-Trifluoro-N-(2-fluoro-6-methyl-5-((3-(2-(piperidin-3-ylamino)pyrimidin-4-yl)pyridin-2-yl)oxy)naphthalen-1-yl)ethanesulfonamide] showed an IC50 of 23.4 nM. With `Cc1ccc2c(NC(=O)C(C)(C)C#N)cccc2c1Oc1ncccc1-c1ccnc(N[C@H]2CCCNC2)n1` [Example 363, (S)-2-Cyano-2-methyl-N-(6-methyl-5-((3-(2-(piperidin-3-ylamino)pyrimidin-4-yl)pyridin-2-yl)oxy)naphthalen-1-yl)propanamide] the IC50 was 408 nM. `Cc1ccc2c(NC(=O)CC3CCCCC3)c(F)ccc2c1Oc1ncccc1-c1ccnc(N[C@H]2CCCNC2)n1` [Example 364, (S)-2-Cyclohexyl-N-(2-fluoro-6-methyl-5-((3-(2-(piperidin-3-ylamino)pyrimidin-4-yl)pyridin-2-yl)oxy)naphthalen-1-yl)acetamide] was tested, and the IC50 was 216 nM. With `Cc1ccc2c(NC(=O)C3(C)CC3)c(F)ccc2c1Oc1ncccc1-c1ccnc(N[C@H]2CCCNC2)n1` [Example 365, (S)—N-(2-Fluoro-6-methyl-5-((3-(2-(piperidin-3-ylamino)pyrimidin-4-yl)pyridin-2-yl)oxy)naphthalen-1-yl)-1-methylcyclopropanecarboxamide] the IC50 was 438 nM. With `Cc1ccc2c(NC(=O)CC3CCCCC3)c(F)ccc2c1Oc1ncccc1-c1ccnc(N[C@@H]2CNC[C@H](C)C2)n1` [Example 366, 2-Cyclohexyl-N-(2-fluoro-6-methyl-5-((3-(2-(((3S,5R)-5-methylpiperidin-3-yl)amino)pyrimidin-4-yl)pyridin-2-yl)oxy)naphthalen-1-yl)acetamide] the IC50 was 101 nM. With `CCCS(=O)(=O)Nc1c(F)ccc2c(Oc3ncccc3-c3ccnc(N[C@@H]4CNC[C@H](C)C4)n3)c(C)ccc12` [Example 367, N-(2-Fluoro-6-methyl-5-((3-(2-(((3S,5R)-5-methylpiperidin-3-yl)amino)pyrimidin-4-yl)pyridin-2-yl)oxy)naphthalen-1-yl)propane-1-sulfonamide] the IC50 was 14.5 nM. Molecule `Cc1ccc2c(NC(=O)C3(C)CC3)cccc2c1Oc1ncccc1-c1ccnc(N[C@@H]2CNC[C@H](C)C2)n1` [Example 368, 1-Methyl-N-(6-methyl-5-((3-(2-(((3S,5R)-5-methylpiperidin-3-yl)amino)pyrimidin-4-yl)pyridin-2-yl)oxy)naphthalen-1-yl)cyclopropanecarboxamide] has an IC50 of 214 nM. For `Cc1ccc2c(NS(=O)(=O)CC(C)C)c(F)ccc2c1Oc1ncccc1-c1ccnc(N[C@@H]2CNC[C@H](C)C2)n1` [Example 369, N-(2-Fluoro-6-methyl-5-((3-(2-(((3S,5R)-5-methylpiperidin-3-yl)amino)pyrimidin-4-yl)pyridin-2-yl)oxy)naphthalen-1-yl)-2-methylpropane-1-sulfonamide], the IC50 was 19.4 nM. `CCCS(=O)(=O)Nc1c(Cl)ccc2c(Oc3ncccc3-c3ccnc(N[C@H]4CCCNC4)n3)c(C)ccc12` [Example 370, (S)—N-(2-Chloro-6-methyl-5-((3-(2-(piperidin-3-ylamino)pyrimidin-4-yl)pyridin-2-yl)oxy)naphthalen-1-yl)propane-1-sulfonamide] gave an IC50 of 27.6 nM. With `Cc1nc(CNc2c(F)ccc3c(Oc4ncccc4-c4ccnc(N[C@H]5CCCNC5)n4)c(C)ccc23)cs1` [Example 371, (S)-4-(2-((6-Fluoro-2-methyl-5-(((2-methylthiazol-4-yl)methyl)amino)naphthalen-1-yl)oxy)pyridin-3-yl)-N-(piperidin-3-yl)pyrimidin-2-amine] the IC50 was 381 nM. For `Cc1ccc2c(NC(=O)CC(C)(C)C)c(F)ccc2c1Oc1ncccc1-c1ccnc(N[C@@H]2CNC[C@H](C)C2)n1` [Example 374, N-(2-Fluoro-6-methyl-5-((3-(2-(((3S,5R)-5-methylpiperidin-3-yl)amino)pyrimidin-4-yl)pyridin-2-yl)oxy)naphthalen-1-yl)-3,3-dimethylbutanamide], the IC50 was 39.4 nM. `Cc1ccc2c(NS(=O)(=O)CC(F)(F)F)c(F)ccc2c1Oc1ncccc1-c1ccnc(N[C@@H]2CNC[C@H](C)C2)n1` [Example 375, 2,2,2-Trifluoro-N-(2-fluoro-6-methyl-5-((3-(2-(((3S,5R)-5-methylpiperidin-3-yl)amino)pyrimidin-4-yl)pyridin-2-yl)oxy)naphthalen-1-yl)ethanesulfonamide] gave an IC50 of 13.2 nM. In the case of `Cc1ccc2c(Oc3ncccc3-c3ccnc(N[C@H]4CCCNC4)n3)c(C)ccc2c1NS(=O)(=O)CC(C)C` [Example 376, (S)—N-(2,6-Dimethyl-5-((3-(2-(piperidin-3-ylamino)pyrimidin-4-yl)pyridin-2-yl)oxy)naphthalen-1-yl)-2-methylpropane-1-sulfonamide], the IC50 is reported as 73.5 nM. `Cc1ccc2c(NC[C@H](O)C(F)(F)F)c(F)ccc2c1Oc1ncccc1-c1ccnc(N[C@H]2CCCNC2)n1` [Example 377, (S)-1,1,1-Trifluoro-3-((2-fluoro-6-methyl-5-((3-(2-((S)-piperidin-3-ylamino)pyrimidin-4-yl)pyridin-2-yl)oxy)naphthalen-1-yl)amino)propan-2-ol] was tested, and the IC50 was 10.2 nM. `Cc1ccc2c(NS(=O)(=O)Cc3ccccc3)c(F)ccc2c1Oc1ncccc1-c1ccnc(N[C@@H]2CNC[C@H](C)C2)n1` [Example 378, N-(2-Fluoro-6-methyl-5-((3-(2-(((3S,5R)-5-methylpiperidin-3-yl)amino)pyrimidin-4-yl)pyridin-2-yl)oxy)naphthalen-1-yl)-1-phenylmethanesulfonamide] showed an IC50 of 1.41 nM. For `Cc1ccc2c(N[C@H](C)[C@@H](C)O)cccc2c1Oc1ncccc1-c1ccnc(N[C@H]2CCCNC2)n1` [Example 381, anti-3-((6-Methyl-5-((3-(2-(((S)-piperidin-3-yl)amino)pyrimidin-4-yl)pyridin-2-yl)oxy)naphthalen-1-yl)amino)butan-2-ol], the IC50 was 403 nM. `Cc1ccc2c(NC3CCCC[C@H]3O)cccc2c1Oc1ncccc1-c1ccnc(N[C@H]2CCCNC2)n1` (stereo partly drawn) [Example 384, trans-2-((6-Methyl-5-((3-(2-((S)-piperidin-3-ylamino)pyrimidin-4-yl)pyridin-2-yl)oxy)naphthalen-1-yl)amino)cyclohexanol] gave an IC50 of 146 nM. Work on `CCCS(=O)(=O)Nc1cccc2c(Oc3ncc(Cl)cc3-c3ccnc(N[C@H]4CCCNC4)n3)c(C)ccc12` [Example 385, (S)—N-(5-((5-Chloro-3-(2-(piperidin-3-ylamino)pyrimidin-4-yl)pyridin-2-yl)oxy)-6-methylnaphthalen-1-yl)propane-1-sulfonamide] yielded an IC50 of 366 nM. Work on `Cc1ccc2c(NS(=O)(=O)Cc3ccccc3F)c(F)ccc2c1Oc1ncccc1-c1ccnc(N[C@H]2CCCNC2)n1` [Example 391, (S)—N-(2-Fluoro-6-methyl-5-((3-(2-(piperidin-3-ylamino)pyrimidin-4-yl)pyridin-2-yl)oxy)naphthalen-1-yl)-1-(2-fluorophenyl)methanesulfonamide] yielded an IC50 of 2.77 nM. For `Cc1ccc2c(NS(=O)(=O)Cc3ccccc3C(F)(F)F)c(F)ccc2c1Oc1ncccc1-c1ccnc(N[C@H]2CCCNC2)n1` [Example 392, (S)—N-(2-Fluoro-6-methyl-5-((3-(2-(piperidin-3-ylamino)pyrimidin-4-yl)pyridin-2-yl)oxy)naphthalen-1-yl)-1-(2-(trifluoromethyl)phenyl)methanesulfonamide], the IC50 was 6.32 nM.

Same assay, conditions: Table 2; read-out: XBP1s-luc 293 LUC (IC50)
`CCCCS(=O)(=O)Nc1c(F)ccc2c(Oc3ncccc3-c3ccnc(N[C@H]4CCCNC4)n3)c(C)ccc12` [Example 397, (S)—N-(2-Fluoro-6-methyl-5-((3-(2-(piperidin-3-ylamino)pyrimidin-4-yl)pyridin-2-yl)oxy)naphthalen-1-yl)butane-1-sulfonamide hydrochloride] was tested, and the IC50 was 34 nM. `Cc1ccc2c(NS(=O)(=O)CCC(F)F)c(F)ccc2c1Oc1ncccc1-c1ccnc(N[C@H]2CCCNC2)n1` [Example 398, (S)-3,3-Difluoro-N-(2-fluoro-6-methyl-5-((3-(2-(piperidin-3-ylamino)pyrimidin-4-yl)pyridin-2-yl)oxy)naphthalen-1-yl)propane-1-sulfonamide hydrochloride] was tested, and the IC50 was 22 nM.
